# Source: patent US8921362B2, “6,7-dialkoxy quinazoline derivatives and methods of treating drug resistant and other tumors” (Natco Pharma Limited, priority 2008, dated 2014)
# What was measured:
# Test in all cases: KinomeScan
# Type in all cases: binding
# Settings in all cases: read-out: % Ctrl @ 10000 nM
# ALK = target: T1, ALK (Homo sapiens, UniProt Q9UM73)
# T1 construct: host or cells: E. coli (BL21-derived), T7 phage lysate
# Outline: (§1)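 In this phage-display binding screen, compound competes with immobilized ligand for the kinase fusion, and bead-bound phage, eluted after washing, is titered by qPCR.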
# BIKE = target: T2, BIKE (Homo sapiens, UniProt Q9NSY1)
# T2 construct: host or cells: E. coli host derived from BL21
# Outline: as §1
# CAMK1D = target: T3, CAMK1D (Homo sapiens, UniProt Q8IU85)
# T3 construct: host or cells: E. coli host derived from BL21
# Outline: as §1
# CHEK1 = target: T4, CHEK1 (Homo sapiens, UniProt O14757)
# T4 construct: host or cells: T7 phage in E. coli host derived from BL21
# Outline: as §1
# CHEK2 = target: T5, CHEK2 (Homo sapiens, UniProt O96017)
# T5 construct: host or cells: T7 phage in E. coli host derived from BL21
# Outline: as §1
# DCAMKL2 = target: T6, DCAMKL2 (Homo sapiens, UniProt Q8N568)
# T6 construct: purchased Ambit Biosciences Corp (KinomeScan); host or cells: T7 phage in E. coli host derived from BL21
# Outline: as §1
# EGFR(E746-A750del) = target: T7, EGFR(E746-A750del) (Homo sapiens, UniProt P00533, DEL746-750)
# T7 construct: purchased Ambit Biosciences Corp (KinomeScan); host or cells: T7 phage in E. coli host derived from BL21
# Outline: as §1
# EGFR(G719S) = target: T8, EGFR(G719S) (Homo sapiens, UniProt P00533, G719S)
# T8 construct: purchased Ambit Biosciences Corp (KinomeScan); host or cells: T7 phage in E. coli host derived from BL21
# Outline: as §1
# [1] = target: T9, EGFR(L747-E749del, A750P) (Homo sapiens, UniProt P00533, A750P/DEL747-749)
# T9 construct: purchased Ambit Biosciences Corp (KinomeScan); host or cells: T7 phage in E. coli host derived from BL21
# Outline: as §1
# EPHA8 = target: T10, EPHA8 (Homo sapiens, UniProt P29322)
# T10 construct: purchased Ambit Biosciences Corp; host or cells: T7 phage in E. coli host derived from BL21
# Outline: as §1
# EPHB3 = target: T11, EPHB3 (Homo sapiens, UniProt P54753)
# T11 construct: purchased Ambit Biosciences Corp; host or cells: T7 phage in E. coli host derived from BL21
# Outline: as §1
# FLT3(D835Y) = target: T12, FLT3(D835Y) (Homo sapiens, UniProt P36888, D835Y)
# T12 construct: host or cells: T7 phage in E. coli host derived from BL21
# Outline: as §1
# FLT3(N8411) = target: T13, FLT3(N8411) (Homo sapiens, UniProt P36888, N841I)
# T13 construct: host or cells: T7 phage in E. coli host derived from BL21
# Outline: as §1
# GCN2(Kin.Dom.2.S808G) = target: T14, GCN2(Kin.Dom.2.S808G) (Homo sapiens, UniProt Q9P2K8, S808G)
# T14 construct: GCN2(KIN.DOM.2, S808G); host or cells: T7 phage in E. coli host derived from BL21
# Outline: as §1
# GSK3B = target: T15, GSK3B (Homo sapiens, UniProt P49841)
# T15 construct: host or cells: T7 phage in E. coli host derived from BL21
# Outline: as §1
# MAP3K4 = target: T16, MAP3K4 (Homo sapiens, UniProt Q9Y6R4)
# T16 construct: host or cells: E. coli host derived from the BL21 strain, infected with T7 phage
# Outline: as §1
# MET = target: T17, MET (Homo sapiens, UniProt P08581)
# T17 construct: host or cells: E. coli host derived from the BL21 strain, infected with T7 phage
# Outline: as §1
# MINK = target: T18, MINK (Homo sapiens, UniProt Q8N4C8)
# T18 construct: host or cells: E. coli host derived from the BL21 strain, infected with T7 phage
# Outline: as §1
# MRCKA = target: T19, MRCKA (Homo sapiens, UniProt Q5VT25)
# T19 construct: host or cells: T7 phage grown in E. coli host derived from BL21
# Outline: as §1
# MYO3A = target: T20, MYO3A (Homo sapiens, UniProt Q8NEV4)
# T20 construct: host or cells: T7 phage grown in E. coli host derived from BL21
# Outline: as §1
# MYO3B = target: T21, MYO3B (Homo sapiens, UniProt Q8WXR4)
# T21 construct: host or cells: T7 phage grown in E. coli host derived from BL21
# Outline: as §1
# NEK6 = target: T22, NEK6 (Homo sapiens, UniProt Q9HC98)
# T22 construct: host or cells: T7 phage grown in E. coli host derived from BL21
# Outline: as §1
# PIM3 = target: T23, PIM3 (Homo sapiens, UniProt Q86V86)
# T23 construct: host or cells: T7 phage in E. coli host derived from BL21
# Outline: as §1
# PRKCD = target: T24, PRKCD (Homo sapiens, UniProt Q05655)
# T24 construct: host or cells: T7 phage in E. coli host derived from BL21
# Outline: as §1
# RIOK3 = target: T25, RIOK3 (Homo sapiens, UniProt O14730)
# T25 construct: host or cells: E. coli host derived from BL21, T7 phage display
# Outline: as §1
# RIPK2 = target: T26, RIPK2 (Homo sapiens, UniProt O43353)
# T26 construct: host or cells: E. coli host derived from BL21, T7 phage display
# Outline: as §1
# ROS1 = target: T27, ROS1 (Homo sapiens, UniProt P08922)
# T27 construct: host or cells: E. coli host derived from BL21, T7 phage display
# Outline: as §1
# [2] = target: T28, RPS6KA5(Kin.Dom.-2-C-terminal) (Homo sapiens, UniProt O75582)
# T28 construct: RPS6KA5(Kin.Dom.-2-C-terminal); host or cells: E. coli host derived from BL21, T7 phage display
# Outline: as §1
# SIK = target: T29, SIK (Homo sapiens, UniProt P57059)
# T29 construct: host or cells: T7 phage grown in E. coli (BL21-derived)
# Outline: as §1
# STK33 = target: T30, STK33 (Homo sapiens, UniProt Q9BYT3)
# T30 construct: host or cells: T7 phage grown in E. coli (BL21-derived)
# Outline: as §1
# [3] = target: T31, TYK2(JH1domain-catalytic) (Homo sapiens, UniProt P29597)
# T31 construct: TYK2(JH1domain-catalytic); host or cells: E. coli host derived from BL21, T7 phage
# Outline: as §1
# T14 sequence (Q9P2K8 590-1001 S808G limits assumed): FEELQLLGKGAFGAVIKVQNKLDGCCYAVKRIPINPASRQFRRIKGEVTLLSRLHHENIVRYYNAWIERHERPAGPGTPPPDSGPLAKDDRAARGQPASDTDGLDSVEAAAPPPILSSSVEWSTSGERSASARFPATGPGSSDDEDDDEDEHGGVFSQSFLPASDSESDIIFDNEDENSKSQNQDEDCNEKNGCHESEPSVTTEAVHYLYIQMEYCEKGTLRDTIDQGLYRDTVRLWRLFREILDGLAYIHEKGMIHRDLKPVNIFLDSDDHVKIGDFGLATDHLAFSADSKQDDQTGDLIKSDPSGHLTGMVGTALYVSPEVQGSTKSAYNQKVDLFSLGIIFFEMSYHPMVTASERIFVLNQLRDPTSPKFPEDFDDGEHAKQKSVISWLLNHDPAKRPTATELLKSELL
# T21 sequence (Q8WXR4 whole entry): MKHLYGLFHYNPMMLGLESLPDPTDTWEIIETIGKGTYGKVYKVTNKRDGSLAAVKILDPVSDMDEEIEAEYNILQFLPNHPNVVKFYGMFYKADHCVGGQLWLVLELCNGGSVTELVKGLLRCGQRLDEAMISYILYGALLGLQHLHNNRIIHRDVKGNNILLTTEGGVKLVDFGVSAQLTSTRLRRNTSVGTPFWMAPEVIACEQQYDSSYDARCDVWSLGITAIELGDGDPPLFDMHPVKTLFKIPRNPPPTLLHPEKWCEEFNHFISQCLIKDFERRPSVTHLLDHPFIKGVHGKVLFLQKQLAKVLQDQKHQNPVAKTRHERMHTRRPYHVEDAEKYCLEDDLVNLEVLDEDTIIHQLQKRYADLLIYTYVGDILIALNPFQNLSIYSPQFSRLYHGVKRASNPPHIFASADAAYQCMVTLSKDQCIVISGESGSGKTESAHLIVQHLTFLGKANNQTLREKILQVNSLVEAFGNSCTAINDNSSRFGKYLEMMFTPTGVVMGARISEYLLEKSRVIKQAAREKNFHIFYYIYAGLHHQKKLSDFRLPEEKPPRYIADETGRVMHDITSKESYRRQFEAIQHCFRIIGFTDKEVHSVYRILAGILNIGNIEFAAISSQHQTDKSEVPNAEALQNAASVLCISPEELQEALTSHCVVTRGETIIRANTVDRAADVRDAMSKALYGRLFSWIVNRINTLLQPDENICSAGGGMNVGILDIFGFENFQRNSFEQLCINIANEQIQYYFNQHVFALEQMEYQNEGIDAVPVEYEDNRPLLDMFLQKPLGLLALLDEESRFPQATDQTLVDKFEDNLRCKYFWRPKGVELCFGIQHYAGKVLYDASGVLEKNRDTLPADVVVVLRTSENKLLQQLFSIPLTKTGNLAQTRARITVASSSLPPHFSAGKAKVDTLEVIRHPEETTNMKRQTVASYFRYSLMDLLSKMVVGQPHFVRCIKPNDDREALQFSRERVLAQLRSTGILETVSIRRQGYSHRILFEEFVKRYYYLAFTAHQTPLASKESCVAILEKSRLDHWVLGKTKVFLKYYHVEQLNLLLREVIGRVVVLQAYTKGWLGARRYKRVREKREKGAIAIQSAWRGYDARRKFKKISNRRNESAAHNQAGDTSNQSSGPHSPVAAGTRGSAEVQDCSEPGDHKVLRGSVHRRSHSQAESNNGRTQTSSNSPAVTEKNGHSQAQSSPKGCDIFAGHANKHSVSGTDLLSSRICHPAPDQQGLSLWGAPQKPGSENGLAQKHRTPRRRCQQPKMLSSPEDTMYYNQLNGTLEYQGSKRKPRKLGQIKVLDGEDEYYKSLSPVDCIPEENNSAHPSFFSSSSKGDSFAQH
# T17 sequence (P08581 25-1390): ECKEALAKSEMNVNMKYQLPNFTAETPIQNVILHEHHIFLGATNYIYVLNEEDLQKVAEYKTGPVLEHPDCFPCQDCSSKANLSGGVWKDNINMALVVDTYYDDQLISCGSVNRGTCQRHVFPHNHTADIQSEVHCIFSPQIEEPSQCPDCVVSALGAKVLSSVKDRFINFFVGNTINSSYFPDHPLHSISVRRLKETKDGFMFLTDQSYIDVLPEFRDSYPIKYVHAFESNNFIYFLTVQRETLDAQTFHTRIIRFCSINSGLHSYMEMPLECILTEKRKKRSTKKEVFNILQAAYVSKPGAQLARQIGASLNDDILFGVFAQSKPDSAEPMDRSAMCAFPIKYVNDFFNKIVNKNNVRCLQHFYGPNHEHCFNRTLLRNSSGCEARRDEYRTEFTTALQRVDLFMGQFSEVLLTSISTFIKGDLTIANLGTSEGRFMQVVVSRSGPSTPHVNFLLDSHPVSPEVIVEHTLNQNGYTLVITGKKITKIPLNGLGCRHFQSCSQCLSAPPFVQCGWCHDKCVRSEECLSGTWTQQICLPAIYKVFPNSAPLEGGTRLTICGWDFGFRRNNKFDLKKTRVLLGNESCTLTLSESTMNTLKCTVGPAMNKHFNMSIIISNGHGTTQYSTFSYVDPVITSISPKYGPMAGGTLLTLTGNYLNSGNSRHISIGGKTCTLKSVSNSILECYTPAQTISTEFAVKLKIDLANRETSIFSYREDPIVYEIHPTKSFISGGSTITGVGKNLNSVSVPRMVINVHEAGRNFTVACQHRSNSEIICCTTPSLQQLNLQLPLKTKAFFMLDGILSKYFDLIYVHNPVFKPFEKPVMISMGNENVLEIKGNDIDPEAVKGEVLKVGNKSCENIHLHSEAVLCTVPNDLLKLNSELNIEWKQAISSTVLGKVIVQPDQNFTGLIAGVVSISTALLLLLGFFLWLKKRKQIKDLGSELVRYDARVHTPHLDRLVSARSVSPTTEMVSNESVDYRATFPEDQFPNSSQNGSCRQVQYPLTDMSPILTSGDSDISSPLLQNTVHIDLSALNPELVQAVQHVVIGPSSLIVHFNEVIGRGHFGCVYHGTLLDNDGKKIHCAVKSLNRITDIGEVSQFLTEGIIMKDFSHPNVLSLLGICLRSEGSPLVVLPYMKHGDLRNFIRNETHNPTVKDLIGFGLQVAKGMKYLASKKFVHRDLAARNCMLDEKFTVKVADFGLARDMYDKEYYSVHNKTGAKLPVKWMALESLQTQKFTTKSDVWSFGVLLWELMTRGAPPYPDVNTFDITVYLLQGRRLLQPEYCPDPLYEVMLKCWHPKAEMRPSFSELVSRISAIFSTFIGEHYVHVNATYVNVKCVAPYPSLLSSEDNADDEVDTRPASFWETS
# T31 sequence (P29597 897-1176 limits assumed): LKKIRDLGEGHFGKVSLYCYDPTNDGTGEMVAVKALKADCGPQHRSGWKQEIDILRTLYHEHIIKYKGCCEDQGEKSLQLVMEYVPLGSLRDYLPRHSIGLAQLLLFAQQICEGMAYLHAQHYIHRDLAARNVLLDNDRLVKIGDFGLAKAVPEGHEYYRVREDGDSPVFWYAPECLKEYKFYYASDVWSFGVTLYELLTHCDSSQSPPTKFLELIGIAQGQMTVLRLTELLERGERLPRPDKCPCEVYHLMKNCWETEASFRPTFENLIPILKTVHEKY
# T30 sequence (Q9BYT3 whole entry): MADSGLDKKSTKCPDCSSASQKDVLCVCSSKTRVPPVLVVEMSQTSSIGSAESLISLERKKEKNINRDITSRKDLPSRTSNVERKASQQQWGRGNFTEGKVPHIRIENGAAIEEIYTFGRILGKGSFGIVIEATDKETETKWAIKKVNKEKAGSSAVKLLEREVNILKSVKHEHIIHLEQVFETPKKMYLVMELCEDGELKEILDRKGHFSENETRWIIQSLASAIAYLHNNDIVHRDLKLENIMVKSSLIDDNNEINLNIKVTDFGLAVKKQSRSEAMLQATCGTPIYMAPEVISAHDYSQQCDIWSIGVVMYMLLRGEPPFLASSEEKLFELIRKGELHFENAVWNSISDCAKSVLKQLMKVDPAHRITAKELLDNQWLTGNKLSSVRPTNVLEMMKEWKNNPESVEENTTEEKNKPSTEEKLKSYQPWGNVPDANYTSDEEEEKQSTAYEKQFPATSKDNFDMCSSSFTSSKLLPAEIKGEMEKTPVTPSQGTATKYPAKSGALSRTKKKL
# T15 sequence (P49841 whole entry): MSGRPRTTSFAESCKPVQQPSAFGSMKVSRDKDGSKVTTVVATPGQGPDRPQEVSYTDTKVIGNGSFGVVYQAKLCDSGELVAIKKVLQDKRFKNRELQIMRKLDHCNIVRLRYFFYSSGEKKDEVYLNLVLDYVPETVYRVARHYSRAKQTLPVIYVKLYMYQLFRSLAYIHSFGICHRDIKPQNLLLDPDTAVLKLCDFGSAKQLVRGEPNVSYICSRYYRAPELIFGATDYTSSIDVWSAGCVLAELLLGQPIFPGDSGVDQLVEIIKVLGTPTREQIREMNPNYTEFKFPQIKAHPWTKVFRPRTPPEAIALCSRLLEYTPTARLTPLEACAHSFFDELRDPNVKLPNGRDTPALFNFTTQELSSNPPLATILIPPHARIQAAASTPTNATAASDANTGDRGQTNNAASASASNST
# T5 sequence (O96017 whole entry): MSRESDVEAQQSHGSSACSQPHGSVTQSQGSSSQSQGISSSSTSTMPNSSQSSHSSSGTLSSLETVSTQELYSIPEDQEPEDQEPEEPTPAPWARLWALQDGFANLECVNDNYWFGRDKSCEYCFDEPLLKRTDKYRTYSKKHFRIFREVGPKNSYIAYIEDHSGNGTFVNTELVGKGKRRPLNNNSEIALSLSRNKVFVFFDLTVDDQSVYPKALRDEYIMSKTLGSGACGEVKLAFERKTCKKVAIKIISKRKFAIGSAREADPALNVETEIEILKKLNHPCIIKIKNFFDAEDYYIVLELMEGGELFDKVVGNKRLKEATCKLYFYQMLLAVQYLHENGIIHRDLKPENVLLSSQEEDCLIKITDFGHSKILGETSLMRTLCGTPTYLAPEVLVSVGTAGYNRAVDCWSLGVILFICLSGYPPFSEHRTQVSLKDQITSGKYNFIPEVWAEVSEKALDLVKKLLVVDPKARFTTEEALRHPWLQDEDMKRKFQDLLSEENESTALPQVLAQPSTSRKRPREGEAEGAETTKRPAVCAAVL
compound,measurement,setting,value
"C#Cc1cccc(Nc2ncnc3cc(OC)c(OCCCN4CCOCC4)cc23)c1 [NRC-2694, N-(3-ethynylphenyl)-7-methoxy-6-[3-(4-morpholinyl)propoxy]-4-quinazolinamine]",remaining binding at 10 µM,ALK,10%
same,remaining binding at 10 µM,BIKE,36%
same,remaining binding at 10 µM,CAMK1D,83%
same,remaining binding at 10 µM,CHEK1,42%
same,remaining binding at 10 µM,CHEK2,38%
same,remaining binding at 10 µM,DCAMKL2,69%
same,remaining binding at 10 µM,EGFR(E746-A750del),0%
same,remaining binding at 10 µM,EGFR(G719S),0%
same,remaining binding at 10 µM,[1],0%
same,remaining binding at 10 µM,EPHA8,66%
same,remaining binding at 10 µM,EPHB3,75%
same,remaining binding at 10 µM,FLT3(D835Y),9.4%
same,remaining binding at 10 µM,FLT3(N8411),16%
same,remaining binding at 10 µM,GCN2(Kin.Dom.2.S808G),12%
same,remaining binding at 10 µM,GSK3B,100%
same,remaining binding at 10 µM,MAP3K4,53%
same,remaining binding at 10 µM,MET,33%
same,remaining binding at 10 µM,MINK,16%
same,remaining binding at 10 µM,MRCKA,81%
same,remaining binding at 10 µM,MYO3A,70%
same,remaining binding at 10 µM,MYO3B,100%
same,remaining binding at 10 µM,NEK6,94%
same,remaining binding at 10 µM,PIM3,23%
same,remaining binding at 10 µM,PRKCD,84%
same,remaining binding at 10 µM,RIOK3,37%
same,remaining binding at 10 µM,RIPK2,2.4%
same,remaining binding at 10 µM,ROS1,46%
same,remaining binding at 10 µM,[2],57%
same,remaining binding at 10 µM,SIK,53%
same,remaining binding at 10 µM,STK33,43%
same,remaining binding at 10 µM,[3],97%
